# System: SARS-COV-2 pseudoviral particle (pCoV-VP)
# Type: cell-based
row,Compound,decrease of cytopathic effects of pCoV-VPs (MTS assay)
1,CCN(CC)Cc1cc(Nc2ccnc3cc(Cl)ccc23)ccc1O [amodiaquine],approximately 21.4%
2,CCN(CCO)CCCC(C)Nc1ccnc2cc(Cl)ccc12 (stereo not drawn) [hydroxychloroquine],~11.3%
3,CCC(CC)COC(=O)[C@H](C)N[P@](=O)(OC[C@H]1O[C@@](C#N)(c2ccc3c(N)ncnn23)[C@H](O)[C@@H]1O)Oc1ccccc1 [remdesivir],~30.0%
